The molecules below were run against Telomerase reverse transcriptase (Homo sapiens) (UniProt O14746) (assay: Inhibition of telomerase at 10 uM after 30 mins by TRAP assay).
Telomerase reverse transcriptase (Homo sapiens), sequence (O14746 whole entry): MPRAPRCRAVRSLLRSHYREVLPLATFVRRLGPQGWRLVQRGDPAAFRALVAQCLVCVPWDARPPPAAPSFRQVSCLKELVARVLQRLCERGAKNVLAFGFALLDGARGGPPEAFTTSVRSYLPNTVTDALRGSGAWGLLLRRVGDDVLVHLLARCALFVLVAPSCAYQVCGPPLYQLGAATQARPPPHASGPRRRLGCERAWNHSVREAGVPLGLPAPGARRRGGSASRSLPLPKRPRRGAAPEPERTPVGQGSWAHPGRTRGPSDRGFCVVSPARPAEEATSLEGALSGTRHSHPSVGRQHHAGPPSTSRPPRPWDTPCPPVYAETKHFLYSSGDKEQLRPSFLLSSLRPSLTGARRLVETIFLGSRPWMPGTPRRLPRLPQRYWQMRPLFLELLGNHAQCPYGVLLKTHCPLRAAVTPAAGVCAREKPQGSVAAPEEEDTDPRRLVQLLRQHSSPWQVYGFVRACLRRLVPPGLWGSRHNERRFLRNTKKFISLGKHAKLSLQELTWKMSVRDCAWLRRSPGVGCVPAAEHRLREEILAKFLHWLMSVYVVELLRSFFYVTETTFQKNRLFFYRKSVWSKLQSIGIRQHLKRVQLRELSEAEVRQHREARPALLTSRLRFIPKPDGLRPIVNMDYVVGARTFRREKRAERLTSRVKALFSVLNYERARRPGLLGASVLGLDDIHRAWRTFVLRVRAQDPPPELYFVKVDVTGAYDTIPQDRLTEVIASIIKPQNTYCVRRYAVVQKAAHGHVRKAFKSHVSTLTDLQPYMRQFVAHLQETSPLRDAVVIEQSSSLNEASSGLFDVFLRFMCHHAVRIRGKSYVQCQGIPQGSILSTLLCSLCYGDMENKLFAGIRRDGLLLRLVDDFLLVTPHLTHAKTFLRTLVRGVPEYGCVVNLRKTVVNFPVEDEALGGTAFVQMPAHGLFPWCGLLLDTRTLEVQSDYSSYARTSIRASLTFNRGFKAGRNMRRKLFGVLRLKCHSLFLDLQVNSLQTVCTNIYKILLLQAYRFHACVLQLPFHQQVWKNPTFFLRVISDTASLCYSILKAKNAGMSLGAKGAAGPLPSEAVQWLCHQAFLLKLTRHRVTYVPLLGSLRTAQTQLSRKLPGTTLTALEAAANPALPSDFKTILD

| inhibition | Structure (SMILES) |
| --- | --- |
| 52% | CN(C)CCCn1c(=O)c2cc3cc(CCN4CCCCC4)c4cc5c(=O)n(CCCN(C)C)c(=O)c6cc7cc(CCN8CCCCC8)c8cc(c1=O)c2c1c3c4c(c65)c7c81 |
| 66% | CN(C)CCCn1c(=O)c2cc3cc(CCN4CCN(C)CC4)c4cc5c(=O)n(CCCN(C)C)c(=O)c6cc7cc(CCN8CCN(C)CC8)c8cc(c1=O)c2c1c3c4c(c65)c7c81 |
| 38% | O=c1c2cc3cc(CCN4CCCCC4)c4cc5c(=O)n(CCN6CCCCC6)c(=O)c6cc7cc(CCN8CCCCC8)c8cc(c(=O)n1CCN1CCCCC1)c2c1c3c4c(c65)c7c81 |
| 44% | CN1CCN(CCc2cc3cc4c(=O)n(CCN5CCCCC5)c(=O)c5cc6c(CCN7CCN(C)CC7)cc7cc8c(=O)n(CCN9CCCCC9)c(=O)c9cc2c2c3c(c45)c6c7c2c89)CC1 |
